1 molecule from patent US8519124B2, “Chemokine receptor antagonists and use thereof” (Ono Pharmaceutical Co., Ltd., priority 2005, dated 2013) can be followed below.

Series [1] can be described thus: Measurement of maximum plasma level (Cmax) and bioavailability (BA). It is filed as in vivo. The following applies: male, Crl:CD(SD), po; rat plasma; orally administered solution 10 mg/kg, fasting. How it is done:
Measurement of Maximum Plasma Level (CMax) and Bioavailability (BA)
A test compound is weighed, dissolved in Solutol (trade name; manufactured by BASF-TAKEDA Vitamins Ltd.)/propylene glycol=7/3 which is heated to 60° C. and adjusted to 20 mg/mL; thereafter, the test compound is diluted by 10 times with distilled water for injection, and further diluted by 2 times with saline solution, by which intravenously administered solution is eventually made. The test compound is weighed, dissolved in Solutol (trade name; manufactured by BASF-TAKEDA Vitamins Ltd.)/propylene glycol=7/3 which is heated to 60° C., and adjusted to 20 mg/mL; thereafter, the test compound is diluted by 10 times with distilled water for injection, by which orally administered solution is eventually made. Intravenous administration is performed by rapid single administration (n=3) of intravenously administered solution (1 mg/kg) from the tail vein of Crl:CD(SD) Rat (male, manufactured by CHARLES RIVER LABORATORIES JAPAN, INC). Oral administration is performed by forced administration (n=3) of orally administered solution (10 mg/kg) into the stomach of Crl:CD(SD) Rat (male, manufactured by CHARLES RIVER LABORATORIES JAPAN, INC.) using a sonde. The administration is conducted under fasting conditions; water is freely ingested. A 0.35 mL blood sample is taken from cervical vein by using Heparinized Syringe at 15 minutes, 30 minutes, 1 hour, 2 hours, 4 hours, 6 hours, 8 hours, and 24 hours after administration. The obtained blood is stored in ice, and after centrifugation at 12,000 rpm for 5 minutes, blood plasma is fractionated. The blood plasma is preserved at a temperature of −80° C. The sample of blood plasma preserved at a temperature of −80° C. is dissolved; inner standard solution (100 μL) and acetonitrile (2 mL) are added to the blood plasma sample 100 μL and stirred; and the sample is centrifuged at 2,500 rpm for 10 minutes. After the supernatant is evaporated to dryness by means of a centrifugal concentrator, 67% dimethyl sulfoxide solution (150 μL) is added to the residue and dissolves them again; and 20 μL of the solution is analyzed by means of LC/MS/MS.
The analysis by means of LC/MS/MS should be performed, for example, under the following conditions:
Measurement device: Waters 2795 (manufactured by Waters Corporation)
Analytical column: Unison UK-C18, 3.0 μm particle size, 2.0 mm×30 mm (manufactured by Imtakt Corporation)
Analytical column temperature: Room temperature
Moving bed: 5 mM IPC-PFAA-7 solution/acetonitrile (9/1→1/9)
Measurement device: Quatro micro API (manufactured by Micromass Communications Inc.)
Method for ionization: ES+
Capillary electric potential: 3.30 kV
Source temperature: 120° C.
Desolvation temperature: 350° C.
The monitor ion which was suitable for each sample was selected.
The concentration transition in the rat blood plasma of the test compound is analyzed by means of non-compartment analysis method by using WinNonlin 4.0.1 (manufactured by Pharsight Corporation) to calculate the maximum blood concentration Cmax and the area under the blood concentration curve AUC.
BA is calculated by means of the following formula: BA(%)={(AUCp.o./Dosep.o.)/(AUCi.v./Dosei.v.)}×100
AUCp.o.: AUC in oral administration
Dosep.o.: Amount of the drug orally administered
AUCi.v.: AUC in intravenous administration
Dosei.v.: Amount of the drug intravenously administered

Series [2] deals with DOPA liposome (artificial lipid membrane). As to the kind of experiment: Artificial lipid membrane binding by using Biacore S51 system. To be noted: 50 μM compound. On the procedure: Artificial Lipid Membrane Binding Account by Using Biacore (Registered Trademark) S51 System
10 mM of 1,2-Dioleoyl-sn-Glycero-3-Phosphate, Monosodium Salt (hereinafter abbreviated as DOPA) chloroform solution was evaporated to dryness by means of an aspirator, and 0.6 mL of PBS/5% dimethyl sulfoxide (hereinafter abbreviated as DMSO) was added. The chloroform solution was fully suspended by means of a vortex mixer, and the freezing and thawing were repeated for 5 times. Liposome was created by means of a liposome adjustment instrument (manufactured by Avestin Inc.) and 2 syringes, and was diluted to 0.5 mM with PBS/5% DMSO just prior to immobilization.
(ii) Measurement Compound Adjustment
The 38 μL of 1×PBS is added to 2 μL DMSO solution (10 mM), and further the 360 μL 1×PBS/5% DMSO was added; the 50 μM of final concentration in the 1×PBS/5% DMSO was adjusted and measured.
All of the following analysis used Biacore® S51 system; the measurement conditions were set by Biacore S51 Control Soft.
The measurement temperature was set to be 37° C., and the 1×PBS/5% DMSO (pH 7.4 or PH 6.0) was used as a buffer. Series S Sensor Chip L1 was used for a sensor chip. The DOPA was immobilized in one of the measuring spots on the sensor surface, and the central spot was used as a reference.
Immobilization of liposome was conducted at a flow rate of 10 μL/min for about 3 minutes; then the compound was added at a flow rate of 30 μL/min and the interaction was measured. The measurement conditions are as follows:
Assay buffer: PBS/5% DMSO (pH 7.4 or PH 6.0)
Measurement temperature: 37° C.
Sensor chip: Series S Sensor Chip L1
Flow rate: 10 μL/min at the time of the liposome immobilization; 30 μL/min at the time of the measurement of interaction with the compound
Regeneration: 20 mM CHAPS (3-[(3-Cholamidopropyl)dimethylammonio]-1-propanesulfonate), Isopropanol/50 mM sodium hydroxide solution=40/60 (volume ratio) mixture (60 seconds)
The data processing was conducted by means of method of Abdiche et al. (Analytical biochemistry, 328, 233-243 (2004)) by using Biacore S51 Evaluation Soft.
Regarding the value of binding response (RU) in which the value of reference was subtracted, it was divided by a sample molecular weight after minute error of the DMSO concentration included in the sample solution was corrected. In addition, the value obtained here was divided by an amount of capture at the time of the cycle because the value obtained here was proportional to the amount of capture of the liposome; further, the value was multiplied by a million to be considered as a corrected value (Corrected value=1000000)×RU (test compound)/molecular quantity (test compound) RU (liposome)).
Propranolol, Amiodarone, Desipramine, Imipramine and Procaine were added as the controls, and it was recognized that the variation of the binding response was within ca. 10 to 15%.
The compound, in which a value of the binding response after the correction was equal to or more than 150, was determined as positive.
In general terms: SPR reads the build-up and loss of mass on a sensor chip optically.

Turning to `CC(C)(C)CN1CCC2(CCN(Cc3ccc(C(=O)N(Cc4ncc[nH]4)Cc4ncc[nH]4)cc3)CC2)C1` [Example 8 (114), 4-{[2-(2,2-dimethylpropyl)-2,8-diazaspiro[4.5]dec-8-yl]methyl}-N,N-bis(1H-imidazol-2-ylmethyl)benzamide], in series [1], the Cmax (commonly the peak of the concentration-time curve) was 46 ng/mL. For the same molecule, the “Judgement (phospholipidosis inductive effect)” value in series [2] (DOPA liposome) is “negative”. In series [2] (DOPA liposome on Sensor Chip L1, 37° C., PBS/5% DMSO (pH 7.4 or PH 6.0)), the “Corrected value of binding response (RU)” value turned out to be 80.7 RU.
